Measurements from patent US12692254B2, “Benzimidazole inhibitors of PAD enzymes” (BRISTOL-MYERS SQUIBB COMPANY, priority 2018, dated 2026).

Molecular target: human PAD4 (hPAD4) (Homo sapiens, UniProt Q9UM07)
Assay: RFMS human PAD4 functional assay (rapid-fire mass spectrum)
Type: biochemical
Settings: 5 nM hPAD4 enzyme, 250 μM BAEE, 50 μM Calcium; 30 min preincubation, 90 min reaction at 37° C.
Method: Compounds of the present invention were assayed as inhibitors of PAD4 using the assay protocol described below.
RFMS tinman PAD4 Functional Assay:
Compounds were solubilized in 100% DMSO to achieve a 10 mM compound concentration. Compound stock solutions were stored at RT. A series of dilutions were prepared in DMSO and mixed 8 times with 20 μl, mixing volume. Final top concentration of compound in the assay is 50 μM. […] 1-90 min enzyme/substrate reaction, 30 min reaction with phenyl glyoxal at 37° C. • Stop solution: 40 μl 5% TCA in ACN
0.13 μL of compound solution was added to 13 μL of 10 nM PAD4 in assay buffer. After 30 min 13 μl of 500 μM of BAEE was added in 25 mM hepes, pH 7.5, 5 mM NaCl, 1 mM DTT, 0.2 mg/ml BS A, 0.01% CHAPS, 50 μM Calcium, 5 μM TPEN was added and the reaction incubated for 90 min at 37° C. The enzymatic reaction was quenched by addition of 15 μl of 6.1N TCA, 100% Final Concentration is 20%, 35 μl of 8.5 mM phenyl glyoxal (final concentration 4 mM) is then added and the reaction is incubated for 30 min at 37° C.
After 30 minutes the plates are spun down to remove all precipitate. The enzyme reaction was quenched with an equal volume of methanol containing internal standard (modified citrulline). Samples were loaded onto the Rapid Fire RF300 system (Agilent) wherein they were first sipped for 1000 ms and then directly loaded to a C18 separations cartridge using a mixture of acetonitrile containing 0.01% formic acid for 3000 ms desalting. The flow rate of the mobile phase was 1.5 ml/min.
The dwell time for each transition was set at 200 ms, and the ESI voltage was used at 5500 with a source temperature of 400° C. Extracted ion peaks for each transition were integrated using the Rapid Fire Integrator software. Peak area of analyte was normalized with internal standard).

human PAD4 (hPAD4), sequence (Q9UM07 whole entry): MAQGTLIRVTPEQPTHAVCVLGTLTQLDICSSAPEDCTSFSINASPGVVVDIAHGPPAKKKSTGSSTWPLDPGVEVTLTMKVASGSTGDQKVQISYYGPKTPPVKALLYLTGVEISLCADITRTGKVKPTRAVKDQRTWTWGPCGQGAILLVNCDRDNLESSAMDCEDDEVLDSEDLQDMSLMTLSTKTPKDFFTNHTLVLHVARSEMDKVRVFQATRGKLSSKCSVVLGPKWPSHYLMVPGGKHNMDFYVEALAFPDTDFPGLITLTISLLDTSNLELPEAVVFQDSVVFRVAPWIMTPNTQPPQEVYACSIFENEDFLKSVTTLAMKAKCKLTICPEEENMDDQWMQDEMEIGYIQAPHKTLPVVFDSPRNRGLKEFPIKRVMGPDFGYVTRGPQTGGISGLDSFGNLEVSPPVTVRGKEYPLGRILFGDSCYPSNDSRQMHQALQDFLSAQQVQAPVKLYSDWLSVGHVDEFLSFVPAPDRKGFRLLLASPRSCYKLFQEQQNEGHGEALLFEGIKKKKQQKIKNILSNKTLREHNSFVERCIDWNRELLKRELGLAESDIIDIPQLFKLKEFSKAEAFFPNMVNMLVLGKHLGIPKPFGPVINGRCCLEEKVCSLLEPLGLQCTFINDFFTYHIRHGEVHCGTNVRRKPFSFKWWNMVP

SMILES | IC50 [µM]
COc1cc(C(=O)N2C[C@H]3CC[C@@H]2[C@@H]3N)cc2nc(-c3cc4cccnc4n3CC3CC3)n(CC3CN(c4nccnc4C#N)C3)c12 [Example 15, 3-[3-({5-[(1R,4R,7R)-7-amino-2-azabicyclo[2.2.1]heptane-2-carbonyl]-2-[1-(cyclopropylmethyl)-1H-pyrrolo[2,3-b]pyridin-2-yl]-7-methoxy-1H-1,3-benzodiazol-1-yl}methyl)azetidin-1-yl]pyrazine-2-carbonitrile] | 0.047
COc1cc(C(=O)N2C[C@H]3CC[C@@H]2[C@@H]3N)cc2nc(-c3cc4cccnc4n3CC3CC3)n(CC3CN(c4ccnc(C)n4)C3)c12 [Example 16, (1R,4R,7R)-2-{2-[1-(cyclopropylmethyl)-1H-pyrrolo[2,3-b]pyridin-2-yl]-7-methoxy-1-{[1-(2-methylpyrimidin-4-yl)azetidin-3-yl]methyl}-1H-1,3-benzodiazole-5-carbonyl}-2-azabicyclo[2.2.1]heptan-7-amine] | 0.048
COc1cc(C(=O)N2C[C@H]3CC[C@@H]2[C@@H]3N)cc2nc(-c3cc4cccnc4n3CC3CC3)n(CC3CN(c4cnc(C#N)nc4)C3)c12 [Example 17, 5-[3-({5-[(1R,4R,7R)-7-amino-2-azabicyclo[2.2.1]heptane-2-carbonyl]-2-[1-(cyclopropylmethyl)-1H-pyrrolo[2,3-b]pyridin-2-yl]-7-methoxy-1H-1,3-benzodiazol-1-yl}methyl)azetidin-1-yl]pyrimidine-2-carbonitrile] | 0.05
COc1cc(C(=O)N2C[C@H]3CC[C@@H]2[C@@H]3N)cc2nc(-c3cc4cccnc4n3CC3CC3)n(CC3CN(c4ccnc(S(C)(=O)=O)n4)C3)c12 [Example 18, (1R,4R,7R)-2-{2-[1-(cyclopropylmethyl)-1H-pyrrolo[2,3-b]pyridin-2-yl]-1-{[1-(2-methanesulfonylpyrimidin-4-yl)azetidin-3-yl]methyl}-7-methoxy-1H-1,3-benzodiazole-5-carbonyl}-2-azabicyclo[2.2.1]heptan-7-amine] | 0.054
COc1cc(C(=O)N2C[C@H]3CC[C@@H]2[C@@H]3N)cc2nc(-c3cc4ccccc4n3CC3CC3)n(CC3CN(c4cncnc4C#N)C3)c12 [Example 19, 5-[3-({5-[(1R,4R,7R)-7-amino-2-azabicyclo[2.2.1]heptane-2-carbonyl]-2-[1-(cyclopropylmethyl)-1H-indol-2-yl]-7-methoxy-1H-1,3-benzodiazol-1-yl}methyl)azetidin-1-yl]pyrimidine-4-carbonitrile] | 0.055
COc1nccc(N2CC(Cn3c(-c4cc5cccnc5n4CC4CC4)nc4cc(C(=O)N5C[C@H]6CC[C@@H]5[C@@H]6N)cc(OC)c43)C2)n1 [Example 20, (1R,4R,7R)-2-{2-[1-(cyclopropylmethyl)-1H-pyrrolo[2,3-b]pyridin-2-yl]-7-methoxy-1-{[1-(2-methoxypyrimidin-4-yl)azetidin-3-yl]methyl}-1H-1,3-benzodiazole-5-carbonyl}-2-azabicyclo[2.2.1]heptan-7-amine] | 0.057
COc1cc(C(=O)N2C[C@H]3CC[C@@H]2[C@@H]3N)cc2nc(-c3cc4cccnc4n3CC3CC3)n(CC3CN(c4cccc(C#N)n4)C3)c12 [Example 21, 6-[3-({5-[(1R,4R,7R)-7-amino-2-azabicyclo[2.2.1]heptane-2-carbonyl]-2-[1-(cyclopropylmethyl)-1H-pyrrolo[2,3-b]pyridin-2-yl]-7-methoxy-1H-1,3-benzodiazol-1-yl}methyl)azetidin-1-yl]pyridine-2-carbonitrile] | 0.057
COc1cc(C(=O)N2C[C@H]3CC[C@@H]2[C@@H]3N)cc2nc(-c3cc4ccccc4n3C)n(CC3CN(c4cncc(C#N)c4)C3)c12 [Example 22, 5-[3-({5-[(1R,4R,7R)-7-amino-2-azabicyclo[2.2.1]heptane-2-carbonyl]-7-methoxy-2-(1-methyl-1H-indol-2-yl)-1H-1,3-benzodiazol-1-yl}methyl)azetidin-1-yl]pyridine-3-carbonitrile] | 0.06
COc1cc(C(=O)N2C[C@H]3CC[C@@H]2[C@@H]3N)cc2nc(-c3cc4ccc(Cl)cc4n3CC3CC3)n(CC3CN(c4cncc(C)c4)C3)c12 [Example 23, (1R,4R,7R)-2-{2-[6-chloro-1-(cyclopropylmethyl)-1H-indol-2-yl]-7-methoxy-1-{[1-(5-methylpyridin-3-yl)azetidin-3-yl]methyl}-1H-1,3-benzodiazole-5-carbonyl}-2-azabicyclo[2.2.1]heptan-7-amine] | 0.062

The remaining lines, values ahead:

IC50 [µM] | SMILES
0.021 | COc1cc(C(=O)N2C[C@H]3CC[C@@H]2[C@@H]3N)cc2nc(-c3cc4ccc(Cl)cc4n3CC3CC3)n(CC3CN(c4ccnc(C)n4)C3)c12 [Example 9, (1R,4R,7R)-2-{2-[6-chloro-1-(cyclopropylmethyl)-1H-indol-2-yl]-7-methoxy-1-{[1-(2-methylpyrimidin-4-yl)azetidin-3-yl]methyl}-1H-1,3-benzodiazole-5-carbonyl}-2-azabicyclo[2.2.1]heptan-7-amine]
0.032 | COc1cc(C(=O)N2C[C@H]3CC[C@@H]2[C@@H]3N)cc2nc(-c3cc4ccccc4n3C)n(CC3CN(c4ccnc(C#N)n4)C3)c12 [Example 10, 4-[3-({5-[(1R,4R,7R)-7-amino-2-azabicyclo[2.2.1]heptane-2-carbonyl]-7-methoxy-2-(1-methyl-1H-indol-2-yl)-1H-1,3-benzodiazol-1-yl}methyl)azetidin-1-yl]pyrimidine-2-carbonitrile]
0.037 | COc1cc(C(=O)N2C[C@H]3CC[C@@H]2[C@@H]3N)cc2nc(-c3cc4ccccc4n3CC3CC3)n(CC3CN(c4cncnc4C#N)C3)c12 [Example 11, 5-[3-({5-[(1R,4R,7R)-7-amino-2-azabicyclo[2.2.1]heptane-2-carbonyl]-2-[1-(cyclopropylmethyl)-1H-indol-2-yl]-7-methoxy-1H-1,3-benzodiazol-1-yl}methyl)azetidin-1-yl]pyrimidine-4-carbonitrile]
0.038 | COc1cc(C(=O)N2C[C@H]3CC[C@@H]2[C@@H]3N)cc2nc(-c3cc4cccnc4n3CC3CC3)n(CC3CN(c4cc(C#N)cnc4C#N)C3)c12 [Example 12, 3-[3-({5-[(1R,4R,7R)-7-amino-2-azabicyclo[2.2.1]heptane-2-carbonyl]-2-[1-(cyclopropylmethyl)-1H-pyrrolo[2,3-b]pyridin-2-yl]-7-methoxy-1H-1,3-benzodiazol-1-yl}methyl)azetidin-1-yl]pyridine-2,5-dicarbonitrile]
0.038 | COc1cc(C(=O)N2C[C@H]3CC[C@@H]2[C@@H]3N)cc2nc(-c3cc4cccnc4n3CC3CC3)n(CC3CN(c4ccnc(S(C)(=O)=O)n4)C3)c12 [Example 13, (1R,4R,7R)-2-{2-[1-(cyclopropylmethyl)-1H-pyrrolo[2,3-b]pyridin-2-yl]-1-{[1-(2-methanesulfonylpyrimidin-4-yl)azetidin-3-yl]methyl}-7-methoxy-1H-1,3-benzodiazole-5-carbonyl}-2-azabicyclo[2.2.1]heptan-7-amine]
0.046 | COc1cc(C(=O)N2C[C@H]3CC[C@@H]2[C@@H]3N)cc2nc(-c3cc4cccnc4n3CC3CC3)n(CC3CN(c4nc(C#N)ncc4C#N)C3)c12 [Example 14, 4-[3-({5-[(1R,4R,7R)-7-amino-2-azabicyclo[2.2.1]heptane-2-carbonyl]-2-[1-(cyclopropylmethyl)-1H-pyrrolo[2,3-b]pyridin-2-yl]-7-methoxy-1H-1,3-benzodiazol-1-yl}methyl)azetidin-1-yl]pyrimidine-2,5-dicarbonitrile]
